Paper PMC7576608, “Mechanisms of telomerase inhibition by oxidized and therapeutic dNTPs” (Nature Communications, 2020)
Values joined by “and” are separate entries in the source; they are usually repeats but may differ in a detail not shown here. Identical values can stand only once.

Experiments:
telomerase [1] = experiment: Direct telomerase assay in the absence or presence of POT1-TPP1 (processivity R1/2); assay type: biochemical, human; settings: for Effect of POT1-TPP1 on telomerase in presence of analog (in words): analog substituted for its natural dNTP
From the text: (§1) Next we tested whether the telomerase processivity factor POT1–TPP1 modulates modified dNTP inhibition of telomerase. POT1 binds to the telomeric ssDNA overhang, requiring the minimum sequence of 5′-[…]-3′[38]. Inclusion of POT1-binding partner TPP1, increases the binding affinity for telomeric DNA ten-fold compared to POT1 alone. POT1–TPP1 recruits telomerase to telomeres in vivo[39], and greatly increases telomerase repeat processivity. Therefore, we reasoned that POT1–TPP1 may overcome inhibition by the modified dNTPs and enhance telomerase processivity. We conducted telomerase extension reactions with radiolabeled primer in the presence of POT1–TPP1, and used a primer with a single mutation ([…]; underlined G to C mutation)[40] to ensure POT1–TPP1 is positioned at the 5′ portion of the primer (Fig. 5). This provides a homogenous substrate for telomerase extension.
(§2) For these reactions, we replaced the natural dNTP with the modified dNTP analog, while the other dNTPs remained at cellular relevant concentrations.
(§3) Direct telomerase assays were conducted in the absence or presence of 500 nM POT1 and 500 nM TPP1, as indicated, and 5 nM ^32P-end labeled primer ([…]) designed to position POT1 at the 10 nt primer 5′ end. Reactions contained cellular-concentration dNTPs (lanes 1 and 2), except when the natural dNTP was substituted with the oxidized dNTP a or therapeutic dNTP b analog (lanes 3–8), as indicated. […] Letters on the right indicate template base; P indicates unextended 18-mer primer. c Processivity was calculated on the basis of total products normalized to loading control. Images are representative of, and data are shown as mean ± s.d. from 3 to 5 independent experiments. Source data are provided as a Source Data file.
(§4) The reactions were started by the addition of 3 μl of immunopurified telomerase eluent, incubated at 37 °C for 1 h, then terminated with 2 μl of […] and heat inactivated at 65 °C for 20 min. An equal volume of loading buffer (94% formamide, 0.1× TBE, 0.1% bromophenol blue, 0.1% xylene cyanol) was added to the reaction eluent. The samples were heat denatured for 10 min at 100 °C and loaded onto a 14% denaturing acrylamide gel (7 M urea, 1× TBE) and electrophoresed for 90 min at constant 38 W. Samples were imaged using a Typhoon phosphorimager (GE Healthcare). Percent primer extension was calculated with ImageQuant TL 8.2 by measuring the intensity of each product band and dividing by the total radioactivity in the lane or total products, as indicated in the figure legends.
(§5) The processivity was calculated as described[40],[67]. Repeat processivity from the direct telomerase extension assays was calculated as R1/2 (equivalent to the half-time for decay in an exponential time course), which represents the median length of DNA product formed, expressed in terms of number of telomere repeats. First, the total volume counts for each product band extend by one or more telomere repeats were obtained using Image Quant TL. The volume counts were then normalized by dividing by the number of radiolabeled guanosines incorporated into the extended products based on the number of repeats added, termed corrected volume (corr vol). The “percent left behind” (%LB) was calculated for each product band by summing the counts for that product band and for every product band below (shorter products), divided by the total counts for the lane, and then multiplied by 100. The natural log of (100−%LB) was calculated and then plotted vs. repeat number for each product length. A linear regression line was fit to the data to determine the slope of the line.

telomerase [2] = target: telomerase (Homo sapiens, UniProt O14746); experiment: as above; assay type: biochemical; design: made in house; POT1: baculovirus-infected Sf9; TPP1-N: E. coli BL21(DE3) pLysS; settings: analog substituted for its natural dNTP, other dNTPs at cellular concentration
From the text: as §1, §2, §3, §4, §5

[3] = 500 nM POT1 and 500 nM TPP1, Mean
[4] = 500 nM POT1 and 500 nM TPP1, n1-n3

Compound	Fold enhancement of repeat processivity by POT1-TPP1 (telomerase [1]; 2-OH-dATP replaced dATP) [fold]	Processivity R 1/2 (telomerase [2]; [3])	Processivity R 1/2 (telomerase [2]; 500 nM POT1 and 500 nM TPP1, Mean, listed as 2dA)	Processivity R 1/2 (telomerase [2]; 500 nM POT1 and 500 nM TPP1, n1-n3, listed as 2dA)	Processivity R 1/2 (telomerase [2]; Control (no POT1-TPP1), Mean)	Processivity R 1/2 (telomerase [2]; Control (no POT1-TPP1), Mean, listed as 2dA)	Processivity R 1/2 (telomerase [2]; Control (no POT1-TPP1), n1-n3, listed as 2dA)	Effect of POT1-TPP1 on telomerase in presence of analog (in words) (telomerase [1])	Processivity R 1/2 (telomerase [2]; [4])	Processivity R 1/2 (telomerase [2]; Control (no POT1-TPP1), n1-n3)	Processivity R 1/2 (telomerase [2]; 500 nM POT1 and 500 nM TPP1, n1-n3, listed as 8dA)
Nc1nc(O)nc2c1ncn2C1CC(O)C(COP(=O)(O)OP(=O)(O)OP(=O)(O)O)O1 (centres unmarked) [2-OH-dATP]	5	2.3	2.27	2.20 and 2.10 and 2.50	0.5	0.49	0.49 and 0.48 and 0.51				
Nc1nc2c(ncn2C2CC(O)C(COP(=O)(O)OP(=O)(O)OP(=O)(O)O)O2)c(=S)[nH]1 (centres unmarked) [6-thio-dGTP]		0.00			0.00			failed to stimulate telomerase	0.00	0.00	
Nc1ncnc2c1[nH]c(=O)n2C1CC(O)C(COP(=O)(O)OP(=O)(O)OP(=O)(O)O)O1 (centres unmarked) [8-oxo-dATP]		1.31			0.00			some POT1–TPP1 stimulation		0.00	1.15 and 1.30 and 1.47
Nc1nc2c([nH]c(=O)n2C2CC(O)C(COP(=O)(O)OP(=O)(O)OP(=O)(O)O)O2)c(=O)[nH]1 (centres unmarked) [8-oxo-dGTP]		0.00			0.00			unable to overcome the chain termination	0.00	0.00	
Cc1cn([C@H]2C[C@H](N=[N+]=[N-])[C@@H](CO[P@](=O)(O)O[P@](=O)(O)OP(=O)(O)O)O2)c(=O)[nH]c1=O [AZT-TP]		0.00			0.00			failed to stimulate telomerase processivity	0.00	0.00	
O=c1[nH]cnc2c1ncn2C1CCC(COP(=O)(O)OP(=O)(O)OP(=O)(O)O)O1 (centres unmarked) [ddITP]		0.00			0.00			failed to stimulate telomerase processivity	0.00	0.00	
